The values that follow come from ChEMBL document CHEMBL1134479 (J Med Chem, 2001).

In assay [1] the target is T1, Estrogen receptor (Homo sapiens, UniProt P03372).
T1 sequence (P03372 whole entry): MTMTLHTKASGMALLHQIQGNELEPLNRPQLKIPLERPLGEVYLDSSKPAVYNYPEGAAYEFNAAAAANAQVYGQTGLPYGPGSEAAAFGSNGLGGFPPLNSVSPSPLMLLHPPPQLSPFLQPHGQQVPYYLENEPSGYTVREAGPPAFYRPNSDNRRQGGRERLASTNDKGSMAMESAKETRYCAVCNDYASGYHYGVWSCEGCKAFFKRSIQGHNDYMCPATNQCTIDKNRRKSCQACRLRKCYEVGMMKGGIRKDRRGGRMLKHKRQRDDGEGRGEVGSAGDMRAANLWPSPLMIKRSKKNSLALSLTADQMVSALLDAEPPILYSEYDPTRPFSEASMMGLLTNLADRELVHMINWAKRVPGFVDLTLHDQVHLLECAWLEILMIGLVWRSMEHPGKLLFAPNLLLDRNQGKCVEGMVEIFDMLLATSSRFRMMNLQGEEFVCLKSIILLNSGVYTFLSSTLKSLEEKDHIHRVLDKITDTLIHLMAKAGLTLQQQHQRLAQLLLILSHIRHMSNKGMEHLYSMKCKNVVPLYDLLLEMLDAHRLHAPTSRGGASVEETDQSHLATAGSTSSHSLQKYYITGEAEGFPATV
Put plainly: In vitro inhibition of [3H]17-beta-estradiol binding to human estrogen receptor alpha.

In a further assay the target is Estrogen receptor beta (Homo sapiens, UniProt Q92731).
Estrogen receptor beta, sequence (Q92731 whole entry): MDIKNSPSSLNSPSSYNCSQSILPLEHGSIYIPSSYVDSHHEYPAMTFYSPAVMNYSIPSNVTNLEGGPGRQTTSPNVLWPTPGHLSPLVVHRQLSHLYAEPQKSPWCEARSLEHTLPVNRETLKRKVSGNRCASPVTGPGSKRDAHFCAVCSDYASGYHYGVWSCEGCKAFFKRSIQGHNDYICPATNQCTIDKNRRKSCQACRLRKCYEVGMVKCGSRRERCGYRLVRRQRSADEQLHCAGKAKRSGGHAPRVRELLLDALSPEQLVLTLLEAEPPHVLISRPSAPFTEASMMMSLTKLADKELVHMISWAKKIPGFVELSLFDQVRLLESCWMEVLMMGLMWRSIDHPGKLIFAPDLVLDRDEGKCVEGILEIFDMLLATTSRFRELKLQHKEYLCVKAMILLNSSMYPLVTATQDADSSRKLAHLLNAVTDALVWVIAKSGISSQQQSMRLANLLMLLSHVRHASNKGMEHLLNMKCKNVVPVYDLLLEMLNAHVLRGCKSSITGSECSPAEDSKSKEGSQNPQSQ
The target in assay [2] is T1, Estrogen receptor. Put plainly: In vitro antagonist effect on estrogen receptor alpha transcriptional activation in MCF-7 cells against 10 pM 17-beta-estradiol.

Description for Estrogen receptor beta: In vitro inhibitory concentration against [3H]17-beta-estradiol binding to human estrogen receptor 2

Turning to `Cc1c(-c2ccc(O)cc2)n(CCCCCCN2CCCC2)c2ccc(O)cc12`, the IC50 on Estrogen receptor [1] worked out at 25 nM; against Estrogen receptor beta it was 242 nM; against Estrogen receptor [2] it was 69 nM.
The molecule `Cc1c(-c2ccc(O)cc2)n(Cc2ccc(OCCN3CCCCC3)cc2)c2ccc(O)cc12` [PIPENDOXIFENE] came in with an IC50 against Estrogen receptor beta of 40 nM.

A word on the IC50: it is the concentration that inhibits the measured activity by half. High values mean weaker potency in that assay, low ones greater potency in that assay.
